Structures can show the parent of a compound that is named as a salt.
How the values were obtained:
Cavia porcellus [1] = assay: Antagonistic effect on LTD4 induced changes in dynamic lung compliance (CDYN) in anesthetized guinea pigs, at dose 5 mg/kg when administered intravenously; assay type: functional; settings: route intravenous
Cavia porcellus [2] = assay: Antagonistic effect on LTD4 induced change in airway resistance (RL) in anesthetized guinea pigs, at dose 5 mg/kg when administered intravenously; assay type: functional; settings: route intravenous
[3] = target: T1, Cysteinyl leukotriene receptor 1 (Cavia porcellus) (UniProt Q2NNR5)
T1 sequence (whole entry): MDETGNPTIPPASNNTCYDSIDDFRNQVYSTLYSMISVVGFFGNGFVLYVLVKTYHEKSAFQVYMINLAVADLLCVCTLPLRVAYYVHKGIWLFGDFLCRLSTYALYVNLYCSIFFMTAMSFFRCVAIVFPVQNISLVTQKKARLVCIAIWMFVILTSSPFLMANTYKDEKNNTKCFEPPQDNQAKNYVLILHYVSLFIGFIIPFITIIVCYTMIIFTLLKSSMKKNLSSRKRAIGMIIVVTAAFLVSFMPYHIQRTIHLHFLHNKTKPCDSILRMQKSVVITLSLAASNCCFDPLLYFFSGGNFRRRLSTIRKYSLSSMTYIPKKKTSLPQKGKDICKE

[4] = target: T2, Cysteinyl leukotriene receptor 1 (Cavia porcellus, UniProt Q2NNR5); assay: Binding constant was determined as affinity to displace [3H]LTD4 from Cysteinyl leukotriene D4 receptor on guinea pig lung membrane; assay type: tissue-based
T2 sequence (Q2NNR5 whole entry): T1 sequence (whole entry)

Cavia porcellus [5] = assay: Antagonistic effect on LTD4 induced change in lung compliance (CDYN) in anesthetized guinea pigs, at dose 5 ug/kg, administered intravenously; assay type: functional; settings: iv
Cavia porcellus [6] = assay: Antagonistic effect on LTD4 induced change in air way resistance (RL) in anesthetized guinea pigs, at dose 5 ug/kg, administered intravenously; assay type: functional; settings: iv
[7] = target: T1, Cysteinyl leukotriene receptor 1 (Cavia porcellus); remark: listed apart in the source
[8] = target: T1, Cysteinyl leukotriene receptor 1 (Cavia porcellus); assay: Dissociation constant towards Cysteinyl leukotriene D4 receptor of guinea pig
Cavia porcellus [9] = assay: Antagonistic effect on LTD4 induced change in lung compliance (CDYN) in anesthetized guinea pig, at dose 5 ug/kg, administered intravenously; assay type: functional; settings: iv

`CCCc1c(OCC(O)COc2ccc3c(=O)cc(C(=O)O)oc3c2CCC)ccc(C(C)=O)c1O` (stereo unspecified) [FPL-55712 SODIUM SALT] showed an inhibition in vivo at 5 mg/kg (Cavia porcellus [1]) of 97%, an inhibition in vivo at 5 mg/kg (Cavia porcellus [2]) of 97% and a -Log K B [3] of 6.8.
Work on `O=C(O)CCSC(SCCC(=O)O)c1ccccc1CCCCCCCCc1ccccc1` yielded a Ki [4] of 245 nM, an inhibition in vivo at 0.005 mg/kg (Cavia porcellus [5]) of 95% and an inhibition in vivo at 0.005 mg/kg (Cavia porcellus [6]) of 100%. It also gave a -Log K B [7] of 6.7.
`CCCCCCCCCCCCc1ccccc1C(SCCC(=O)O)SCCC(=O)O` gave a Ki [4] of 445 nM, a -Log K B [8] of 6 and an inhibition in vivo at 0.005 mg/kg (Cavia porcellus [9]) of 83%. It also gave an inhibition in vivo at 0.005 mg/kg (Cavia porcellus [6]) of 97%.

— ChEMBL document CHEMBL1122930, “Synthesis and pharmacological characterization of 5-(2-dodecylphenyl)-4,6-dithianonanedioic acid and 5-[2-(8-phenyloctyl)phenyl]-4,6-dithianonanedioic acid: prototypes of a novel class of leukotriene antagonists” (J Med Chem, 1985)
